Measured values reported in PubChem BioAssay AID1996.
In brackets after ≈: the same amount, converted by molar mass.

Conditions: buffer; pH 7.4; 200.0 µM

| Compound | solubility kinetic [µg/mL] |
| --- | --- |
| O=C(c1ccc(OC(F)(F)F)cc1)c1ncc[nH]1 | 37.2 (≈ 145 µM) |
| CN(C(=O)CN1CCN(c2ccc([N+](=O)[O-])cn2)CC1)c1ccccc1 | > 53.3 |
| Cc1ccc(S(=O)(=O)Nc2ccc(Cl)cn2)cc1 | 28.3 (≈ 100 µM) |
| COc1ccc(C(=O)COC(=O)c2cc(C)no2)c(OC)c1 | > 45.8 |
| CC(=O)c1ccc(-c2ccc(C(=O)Nc3nc(-c4ccccn4)cs3)o2)cc1 | 4.9 (≈ 12.6 µM) |
| COc1ccccc1N1C(=O)C(Cl)=C(N2CCCC2)C1=O | 9.4 (≈ 30.6 µM) |
| O=C(Nc1ccc(Cl)cc1)C1(S(=O)(=O)c2ccccc2)CC1 | 7.7 (≈ 22.9 µM) |
| Cc1ccc(C(=O)NCCN2CCOCC2)cc1C | 38.1 (≈ 145 µM) |
| Cc1cc(C)nc(NC(=S)Nc2ccc(F)cc2F)c1 | 1.7 (≈ 5.8 µM) |
| Cc1ccc(S(=O)(=O)N2CCNC(=O)C2)c(C)c1 | > 40.2 |
| O=C(CSc1nc2cc(Cl)ccc2o1)NC1CC1 | > 42.4 |
| COc1ccccc1Nc1ncnc2c1c(C)c(C)n2CCO | 15.4 (≈ 49.3 µM) |
| COc1ccc(/C=C/C(=O)N2CCN(c3ccccn3)CC2)cc1OC | > 53 |
| CCn1c(=O)c2ccccc2n(Cc2cccc(C)c2)c1=O | 19.9 (≈ 67.6 µM) |
| Cc1cccc(CSc2nc3ccccc3c(=O)n2C)c1 | 1.2 (≈ 4.05 µM) |
| CCOc1ccc(C(=O)CCC(=O)N2CCN(c3ccc(O)cc3)CC2)cc1 | 16.6 (≈ 43.4 µM) |
| O=C(Cc1ccccc1)Nc1ccccc1C(=O)N1CCCCC1 | > 48.4 |
| COc1ccccc1Nc1nc2cc(C)ccc2cc1C#N | < 0.2 |
| CN(CC(=O)NC(=O)NC1CCCCC1)c1ccccc1 | 6.7 (≈ 23.2 µM) |
| O=c1cc(CN2CCN(S(=O)(=O)c3cccc(Cl)c3)CC2)c2ccc(O)cc2o1 | 13.3 (≈ 30.6 µM) |
| Cc1ccnc(SCC(=O)N2CCCc3ccccc32)n1 | > 44.9 |
| Cc1[nH]c(=O)c(C#N)cc1-c1csc(-c2ccccc2)n1 | 0.7 (≈ 2.39 µM) |
| Cc1ccccc1C(=O)Nc1ccc(N2CCN(C)CC2)nc1 | > 46.6 |
| Cc1cc(C(=O)Nc2nccs2)c2cc(F)ccc2n1 | 3.1 (≈ 10.8 µM) |

| Compound | solubility kinetic [µg/mL] |
| --- | --- |
| O=C(OCc1nc2ccsc2c(=O)[nH]1)c1ccccc1 | > 42.9 |
| COc1ccc(-c2ccc(CCC(=O)O)n2-c2ccccc2O)cc1 | > 50.6 |
| O=C(Nc1ccc2[nH]ccc2c1)c1ccccc1 | 31.9 (≈ 135 µM) |
| O=C(COc1cccnc1[N+](=O)[O-])Nc1c(Cl)cccc1Cl | 23.2 (≈ 67.8 µM) |
| O=C(COc1ccc(Cl)cc1Cl)OCC(=O)c1ccc[nH]1 | 8.2 (≈ 25 µM) |
| O=C(NC(=S)NCc1ccccc1)c1cccc(Cl)c1 | < 0.3 |
| O=C(NC1CCSc2ccccc21)c1ccc(C(F)(F)F)cc1 (centres undefined) | < 0.7 |
| Cc1cc(NC(=O)C(=O)NCc2cccc(Cl)c2)no1 | 3.2 (≈ 10.9 µM) |
| CCc1cc(C(=O)c2ccc(OC)cc2)c(NC(=O)CN2CCCCC2)s1 | < 0.4 |
| O=C(NCCCn1ccnc1)c1cc(-c2cccc(O)c2)on1 | 39.6 (≈ 127 µM) |
| Cc1ccc(Oc2ccc(C(F)(F)F)cc2[N+](=O)[O-])c([N+](=O)[O-])n1 | 7.2 (≈ 21 µM) |
| CCCCn1c(N)c(NCc2ccccc2)c(=O)[nH]c1=O | 39.1 (≈ 136 µM) |
| NC(=O)c1ccc(NC(=O)CN2C(=O)NC3(CCCCCCC3)C2=O)cc1 | > 55.9 |
| Cc1ccc2nc(-c3ccsc3)c(NC3CCCC3)n2c1 | 1.6 (≈ 5.38 µM) |
| CCNc1c(NCC)c(=O)c1=O | 23.2 (≈ 138 µM) |
| O=S(=O)(NCCNc1nccc(C(F)(F)F)n1)c1ccccc1 | 50.2 (≈ 145 µM) |
| N#Cc1cc([N+](=O)[O-])ccc1N1CCN(c2ccccc2O)CC1 | 2.4 (≈ 7.4 µM) |
| CNC(=O)c1sc(-c2ccccn2)nc1C | > 35 |
| Cc1ccc2c(c1)N(CC(=O)N1CCOCC1)C(=O)CO2 | > 43.5 |
| Cc1[nH]c2ccccc2c1C(=O)CCl | 12.1 (≈ 58.3 µM) |
| CCC(Oc1ccccc1F)C(=O)Nc1ccc2c(c1)n(C)c(=O)n2C (centres undefined) | 49 (≈ 137 µM) |
| O=C(Nc1ccc2ccccc2c1)c1ccc2[nH]c(=O)c(=O)[nH]c2c1 | 4.3 (≈ 13 µM) |
| O=C(COC(=O)/C=C/c1cccc(Cl)c1)NC1CC1 | 4.8 (≈ 17.2 µM) |
| O=C(Nc1nc2ccccc2[nH]1)c1cc2ccccc2o1 | 2.1 (≈ 7.57 µM) |

| Compound | solubility kinetic [µg/mL] |
| --- | --- |
| O=C(NC1CC1)C1CC(=O)N(c2ccc(F)cc2)C1 (centres undefined) | 37.6 (≈ 143 µM) |
| CSc1ncc(Cl)c(C(=O)NCc2cccnc2)n1 | > 44.2 |
| Cc1ccc(N2CC(C(=O)NC3CCC(C)CC3)CC2=O)cc1 (centres undefined) | 2.5 (≈ 7.95 µM) |
| Cn1c(CCNC(=O)c2ccco2)nc2cc([N+](=O)[O-])ccc21 | 43.1 (≈ 137 µM) |
| COc1c(S(=O)(=O)N2CCN(C)CC2)ccc(Cl)c1Cl | 45.6 (≈ 134 µM) |
| CC(C)OCCCNC(=O)C1CC(=O)N(CCc2ccccc2)C1 (centres undefined) | 48.9 (≈ 147 µM) |
| COC(=O)CNC(=O)C12CC3CC(C1)CC(c1ccc(C)cc1)(C3)C2 | 6.5 (≈ 19 µM) |
| COc1cc2ccccc2cc1C(=O)Nc1ccc(C)cc1 | 2.3 (≈ 7.89 µM) |
| COC(=O)c1sccc1NC(=O)Nc1ccc(C)c(C)c1 | 20.7 (≈ 68 µM) |
| CC(C(=O)Nc1ccc2c(c1)OCO2)N(C)CC(=O)Nc1ccccc1Cl (centres undefined) | > 58.5 |
| CC(C)c1ccccc1NC(=O)CN1C(=O)c2ccccc2C1=O | 1.6 (≈ 4.96 µM) |
| CC(=O)c1ccc(NC(=O)C2(c3ccccc3)CC2(Cl)Cl)cc1 (centres undefined) | 19.6 (≈ 56.3 µM) |
| CCOc1ccc2[nH]c3c(NCCOC)ncnc3c2c1 | > 42.9 |
| CCN(C(=O)COC(=O)/C=C/c1ccc(F)cc1)C1CCCCC1 | 42.8 (≈ 128 µM) |
| CCOC(=O)C1CCN(C(=O)c2cc3cc(C)ccc3[nH]2)CC1 | 37 (≈ 118 µM) |
| CCNc1nc2cccnc2s1 | 24.7 (≈ 138 µM) |
| C=CCSc1nc(C)c(CC(=C)C)c(=O)[nH]1 | 32.2 (≈ 136 µM) |
| Cl.O=C(OCCN1CCCCC1)c1cccc(Cl)c1 | > 45.6 |
| Cn1cccc1C1CCCN1CC(=O)Nc1c(Cl)cc(Cl)cc1Cl (centres undefined) | 32.5 (≈ 84 µM) |
| Cn1c(N)c(C(=O)Nc2cccc(Cl)c2)c(=O)n(C)c1=O | 2.5 (≈ 8.1 µM) |
| C=CCN1C(=O)c2ccc(C(=O)N3CCC(C(N)=O)CC3)cc2C1=O | 47.9 (≈ 140 µM) |
| Cc1cccc2cc(CNCc3ccccc3)c(Cl)nc12 | 3.8 (≈ 12.8 µM) |
| Cn1c(COc2ccc([N+](=O)[O-])cc2)nnc1SCC(N)=O | > 48.5 |
| Cc1cc2[nH]c(=O)c(=O)[nH]c2cc1S(=O)(=O)NCc1ccccc1 | > 51.8 |

| Compound | solubility kinetic [µg/mL] |
| --- | --- |
| CSc1c(C#N)c(N)nc2sc(C(=O)c3ccccc3)c(N)c12 | 3.1 (≈ 9.11 µM) |
| Cc1cc(C)c(S(=O)(=O)Nc2cc(C)on2)c(C)c1 | 37.2 (≈ 133 µM) |
| COc1ccc(C(=O)NCCNc2ccc([N+](=O)[O-])cc2)cc1 | 5 (≈ 15.9 µM) |
| O=C(NNC(=O)C1CCC1)c1ccccc1 | > 32.7 |
| O=[N+]([O-])c1ccc(SCc2ccncc2)nc1 | 30.5 (≈ 123 µM) |
| COc1ccc(CC(=O)NC2CCSc3ccccc32)cc1OC (centres undefined) | 0.7 (≈ 2.04 µM) |
| O=C(/C=C/c1ccco1)N1CCN(S(=O)(=O)c2ccccc2)CC1 | > 52 |
| O=C(O)CN1C(=O)NC2(CCCc3ccccc32)C1=O (centres undefined) | > 41.1 |
| COc1ccccc1NC(=O)c1c[nH]c2ccccc12 | > 39.9 |
| N#Cc1ccc2nc3c(nc2c1)CCCC3 | 30.2 (≈ 144 µM) |
| Cc1cc(C(=O)Nc2ccncc2)c2ccccc2n1 | 26.3 (≈ 99.9 µM) |
| Cc1nc(Nc2ccccc2)sc1C(=O)Nc1ccccc1 | 1.6 (≈ 5.17 µM) |
| O=c1c([N+](=O)[O-])cccn1Cc1ccccc1Cl | > 39.7 |
| O=C1CCCC(O)=C1N=Nc1ccc(C(=O)O)cc1 | > 39 |
| O=C(COC(=O)/C=C/c1cc(Br)ccc1F)NC1CC1 | 7 (≈ 20.5 µM) |
| NC(=O)CSc1nc(C23CC4CC(CC(C4)C2)C3)nc2ccccc12 | 1.2 (≈ 3.39 µM) |
| CCCC(=O)Nc1c(-c2cccc(C)c2)c(=O)c2ccccc2n1C | 13.1 (≈ 39.2 µM) |
| Cc1ccc(C(=O)NCC(=O)NC2CCCC2)cc1 | 30.4 (≈ 117 µM) |
| Cc1nnc(Cn2cnc3c2c(=O)n(C)c(=O)n3C)o1 | > 41.4 |
| CN(C)CC#CCC(O)(c1ccccc1)C1CCCCC1 (centres undefined) | 42.7 (≈ 150 µM) |
| O=C(Nc1ccccc1)/C(=C/c1ccccc1)NC(=O)c1ccco1 | 1.2 (≈ 3.61 µM) |
| CC1CCN(C(=O)c2ccc([N+](=O)[O-])o2)CC1 | > 35.7 |
| Cn1ccnc1SCC(=O)Nc1cccc([N+](=O)[O-])c1 | 42.4 (≈ 145 µM) |
| O=C(CN1C(=O)NC2(CCc3ccccc32)C1=O)Nc1cccc(Cl)c1 (centres undefined) | 54.2 (≈ 147 µM) |

| Compound | solubility kinetic [µg/mL] |
| --- | --- |
| CCS(=O)(=O)NCCNc1ccc([N+](=O)[O-])cc1 | > 41 |
| CN(c1ccccc1C(=O)NCc1ccccc1Cl)S(=O)(=O)c1ccccc1 | 31.3 (≈ 75.4 µM) |
| COCC(=O)N1CCCC(N(C)CCc2ccc(OC)c(OC)c2)C1 (centres undefined) | > 52.6 |
| Cc1ccc(C)c(NC(=O)CN(C)C(C)C(=O)N2CC(C)CC(C)C2)c1 (centres undefined) | 47.9 (≈ 133 µM) |
| CCCCC1(c2ccc(F)cc2)NC(=O)N(CC(=O)Nc2ccc(N3CCOCC3)cc2)C1=O (centres undefined) | 55.7 (≈ 119 µM) |
| COc1cccc(CNC(=O)CC(NC(C)=O)c2ccccc2)c1 (centres undefined) | > 49 |
| Cc1ccccc1NC(=O)COC(=O)CCSc1ccccc1 | 13.1 (≈ 39.8 µM) |
| CCOC(=O)c1ccc(NC(=O)NC2CC3CCC(C2)N3)cc1 (centres undefined) | 43.5 (≈ 137 µM) |
| CC(C)NC(=O)c1ccc(N(Cc2ccccc2)S(C)(=O)=O)cc1 | 11.1 (≈ 32 µM) |
| Cc1ccc(NC(=O)C2CCCN2C(=O)Oc2ccccc2)c(C)c1 (centres undefined) | > 50.8 |
| O=C(Cc1ccccc1)NCC(=O)N/N=C/c1ccc(C(=O)O)cc1 | > 50.9 |
| Cc1ccc(C(=O)OCC(=O)NCc2cccs2)s1 | > 44.3 |
| Cc1ccc(NC(=O)C2CCCN2C(=O)NCc2ccccc2)cc1 (centres undefined) | 5 (≈ 14.8 µM) |
| CCOc1ccc(N(CC(=O)N2CCCCCC2)S(C)(=O)=O)cc1 | 31 (≈ 87.5 µM) |
| Cn1c(N)c(N=O)c(=O)n(C)c1=O | > 27.6 |
| CCOc1ccccc1N(CC(=O)N1CCCC1)S(C)(=O)=O | > 49 |
| Cc1cc(=O)[nH]c(SCC(=O)NC2CCCCCCC2)n1 | > 46.4 |
| C/C(=N\n1c(C)nc2ccccc2c1=O)c1ccc(C)o1 | > 42.2 |
| CN(C)C(=S)Nc1ccc2c(c1)OCCO2 | > 35.7 |
| O=C(Nc1ccc(F)cc1)N1CCCCCC1 | > 35.4 |
| CC(C)(C)NC(=S)N1CCC(C(=O)c2ccc(F)cc2)CC1 | 5.2 (≈ 16.1 µM) |
| COc1cc(OC)c(C=O)c(OC(=O)N2CCOCC2)c1 | > 44.3 |
| Cc1nc(NC(=O)c2cnccn2)ccc1Br | 7.8 (≈ 26.6 µM) |
